Assay results published in publication PMC3361628 (European Journal of Medicinal Chemistry, 2012).

Assays:
Trypanosoma rhodesiense = conditions: in vivo, 320 mg/kg; cited from earlier work
mice = conditions: mouse, in vivo; cited from earlier work
BoNT/A LC = BoNT/A LC (Clostridium botulinum, UniProt P0DPI0); format: biochemical
Sequence of BoNT/A LC (P0DPI0 2-448 limits assumed): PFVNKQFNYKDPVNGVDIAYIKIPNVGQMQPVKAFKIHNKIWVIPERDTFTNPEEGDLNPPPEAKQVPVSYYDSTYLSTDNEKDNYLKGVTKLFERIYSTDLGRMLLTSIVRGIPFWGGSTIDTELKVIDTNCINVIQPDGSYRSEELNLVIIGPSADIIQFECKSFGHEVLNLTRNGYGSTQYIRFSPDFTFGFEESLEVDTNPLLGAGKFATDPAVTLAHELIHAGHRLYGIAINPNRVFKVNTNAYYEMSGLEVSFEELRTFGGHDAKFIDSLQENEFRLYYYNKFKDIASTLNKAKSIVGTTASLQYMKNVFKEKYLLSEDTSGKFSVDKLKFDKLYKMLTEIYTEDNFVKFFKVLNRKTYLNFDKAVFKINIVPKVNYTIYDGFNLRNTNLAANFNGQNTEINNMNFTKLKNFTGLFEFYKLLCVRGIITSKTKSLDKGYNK

Row | Compound | decrease in inhibitory potency versus 4b (BoNT/A LC) | further results
1 | Cl.Cl.N=C(N)c1ccc(-c2ccc(-c3ccc(C(=N)N)cc3)s2)cc1 [Compound 1, 4,4′-Thiene-2,5-diyldibenzenecarboximidamide dihydrochloride] |  | survival (Trypanosoma rhodesiense): 100%; toxicity to mice (mice): non-toxic
2 | Clc1ccc2c(NCCNCc3ccc(-c4ccc(-c5ccc(CNCCNc6ccnc7cc(Cl)ccc67)cc5)s4)cc3)ccnc2c1.O=C(O)C(F)(F)F [Compound 4a, 4,4′-[Thiene-2,5-diylbis(4,1-phenylenemethyleneammonioethane-2,1-diylimino)]bis(7-chloroquinolinium) tetra(trifluoroacetate)] | approx. 3 fold | 
3 | Clc1ccc2c(NCCCCNCc3ccc(-c4ccc(-c5ccc(CNCCCCNc6ccnc7cc(Cl)ccc67)cc5)s4)cc3)ccnc2c1.O=C(O)C(F)(F)F [Compound 4c, 4,4′-[thiene-2,5-diylbis(4,1-phenylenemethyleneammoniobutane-4,1-diylimino)]bis(7-chloroquinolinium) tetra(trifluoroacetate)] | approx. 1.8 fold | 
4 | Clc1ccc2c(NCCCCCNCc3ccc(-c4ccc(-c5ccc(CNCCCCCNc6ccnc7cc(Cl)ccc67)cc5)s4)cc3)ccnc2c1.O=C(O)C(F)(F)F [Compound 4d, 4,4′-[thiene-2,5-diylbis(4,1-phenylenemethyleneammoniopentane-5,1-diylimino)]bis(7-chloroquinolinium) tetra(trifluoroacetate)] | approx. 3 fold | 
5 | O=C(NCCCNc1ccnc2cc(Cl)ccc12)c1cc(NC(=O)c2ccc(C(=O)Nc3cc(C(=O)NCCCNc4ccnc5cc(Cl)ccc45)cc(C4=NCCN4)c3)cc2)cc(C2=NCCN2)c1 [II, reference compound] |  | increase in inhibitory potency versus I (BoNT/A LC): approx. 15 fold
